Laboratory results: ChEMBL document CHEMBL1268992, “Kojyl thioether derivatives having both tyrosinase inhibitory and anti-inflammatory properties” (Bioorg Med Chem Lett, 2010)

Experiments:
[1] = tested on: RAW264.7; experiment: cells; settings: Mus musculus
Description: Antiinflammatory activity in mouse RAW264.7 cells assessed as inhibition of LPS-induced nitric oxide production treated for 30 mins before LPS challenge measured after 24 hrs by Griess reagent method

[2] = biological target: T1, Tyrosinase (Agaricus bisporus, UniProt O42713)
T1 sequence (O42713 whole entry): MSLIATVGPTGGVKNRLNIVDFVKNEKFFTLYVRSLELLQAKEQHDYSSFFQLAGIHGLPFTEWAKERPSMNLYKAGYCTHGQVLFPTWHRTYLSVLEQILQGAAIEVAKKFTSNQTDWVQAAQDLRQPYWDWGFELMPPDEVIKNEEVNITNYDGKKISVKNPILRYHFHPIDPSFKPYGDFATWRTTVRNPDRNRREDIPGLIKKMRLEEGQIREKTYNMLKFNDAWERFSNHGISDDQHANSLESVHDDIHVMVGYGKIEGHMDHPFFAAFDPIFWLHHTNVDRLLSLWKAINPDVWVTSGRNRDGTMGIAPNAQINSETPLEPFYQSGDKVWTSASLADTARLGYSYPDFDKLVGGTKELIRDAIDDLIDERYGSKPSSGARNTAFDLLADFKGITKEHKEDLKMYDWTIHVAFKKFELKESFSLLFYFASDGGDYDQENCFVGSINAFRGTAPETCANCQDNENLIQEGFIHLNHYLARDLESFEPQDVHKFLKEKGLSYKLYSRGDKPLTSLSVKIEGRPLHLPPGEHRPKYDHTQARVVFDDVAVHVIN
Description: Inhibition of mushroom tyrosinase after 20 mins by microplate reader analysis

[3] = tested on: RAW264.7; experiment: cells; settings: Mus musculus, RAW264.7, 24 h
Description: Cytotoxicity against mouse RAW264.7 cells after 24 hrs by MTT assay

SMILES: CCCCCSCc1cc(=O)c(O)co1
- IC50 [1]: 62 µM
- IC50 [2]: 0.097 µM
- IC50 [3]: > 100 µM

SMILES: O=c1cc(CS(=O)(=O)C2CCCCC2)occ1O
- IC50 [1]: > 100 µM
- IC50 [2]: 69 µM
- IC50 [3]: > 100 µM

SMILES: CCCCCCCSCc1cc(=O)c(O)co1
- IC50 [1]: > 100 µM
- IC50 [2]: 2.65 µM
- IC50 [3]: 98.3 µM

SMILES: CCSCc1cc(=O)c(O)co1
- IC50 [1]: > 100 µM
- IC50 [2]: 2.6 µM
- IC50 [3]: > 100 µM

SMILES: CCCCC[S+]([O-])Cc1cc(=O)c(O)co1 (configuration not stated)
- IC50 [1]: > 100 µM
- IC50 [2]: 79.9 µM
- IC50 [3]: > 100 µM

SMILES: CCCCCC[S+]([O-])Cc1cc(=O)c(O)co1 (configuration not stated)
- IC50 [1]: > 100 µM
- IC50 [2]: 73.8 µM
- IC50 [3]: > 100 µM

SMILES: CCCCSCc1cc(=O)c(O)co1
- IC50 [1]: > 100 µM
- IC50 [2]: 1.48 µM
- IC50 [3]: > 100 µM

SMILES: CCCCCCS(=O)(=O)Cc1cc(=O)c(O)co1
- IC50 [1]: > 100 µM
- IC50 [2]: 49.1 µM
- IC50 [3]: > 100 µM

SMILES: O=c1cc(C[S+]([O-])C2CCCCC2)occ1O (configuration not stated)
- IC50 [1]: > 100 µM
- IC50 [2]: 79 µM
- IC50 [3]: > 100 µM

SMILES: CCCCCCCCSCc1cc(=O)c(O)co1
- IC50 [1]: > 100 µM
- IC50 [2]: 46.2 µM
- IC50 [3]: > 100 µM

SMILES: CCCCCCSCc1cc(=O)c(O)co1
- IC50 [1]: 25.8 µM
- IC50 [2]: 0.19 µM
- IC50 [3]: > 100 µM

SMILES: CCCSCc1cc(=O)c(O)co1
- IC50 [1]: > 100 µM
- IC50 [2]: 1.93 µM
- IC50 [3]: > 100 µM

SMILES: CCCCCS(=O)(=O)Cc1cc(=O)c(O)co1
- IC50 [1]: > 100 µM
- IC50 [2]: 76.6 µM
- IC50 [3]: > 100 µM

SMILES: O=c1cc(CSC2CCCCC2)occ1O
- IC50 [1]: 56.9 µM
- IC50 [2]: 0.087 µM
- IC50 [3]: > 100 µM
